Read-outs that look alike come from different tables or passages of the source.
Assays:
[1] = target: CK1ε (Homo sapiens, UniProt P49674); test: CK1ε kinase assay (Caliper LabChip electrophoretic separation of fluoresceinated peptide substrate and product); assay type: biochemical; details: 200 pM CK1ε, 50 μM ATP, 1.5 μM peptide, 22 hours at room temperature
Experimental: CK1ε and CK1δ Kinase Assays
The kinase assay was performed in V-bottom 384-well plates. […] The reaction was incubated at room temperature for 22 hours and terminated by adding 45 μl of 35 mM EDTA to each sample. The reaction mixture was analyzed on the Caliper LABCHIP®3000 (Caliper, Hopkinton, Mass.) by electrophoretic separation of the unphosphorylated substrate and phosphorylated product. […] Compounds were dissolved at 10 mM in dimethylsulfoxide (DMSO) and evaluated at eleven concentrations. IC50 values were derived by non-linear regression analysis.

[2] = target: CK1δ (Homo sapiens, UniProt P48730); test: CK1δ kinase assay (Caliper LabChip electrophoretic separation of fluoresceinated peptide substrate and product); assay type: biochemical; details: 200 pM CK1δ, 50 μM ATP, 1.5 μM peptide, 22 hours at room temperature
CK1δ, sequence (P48730 whole entry): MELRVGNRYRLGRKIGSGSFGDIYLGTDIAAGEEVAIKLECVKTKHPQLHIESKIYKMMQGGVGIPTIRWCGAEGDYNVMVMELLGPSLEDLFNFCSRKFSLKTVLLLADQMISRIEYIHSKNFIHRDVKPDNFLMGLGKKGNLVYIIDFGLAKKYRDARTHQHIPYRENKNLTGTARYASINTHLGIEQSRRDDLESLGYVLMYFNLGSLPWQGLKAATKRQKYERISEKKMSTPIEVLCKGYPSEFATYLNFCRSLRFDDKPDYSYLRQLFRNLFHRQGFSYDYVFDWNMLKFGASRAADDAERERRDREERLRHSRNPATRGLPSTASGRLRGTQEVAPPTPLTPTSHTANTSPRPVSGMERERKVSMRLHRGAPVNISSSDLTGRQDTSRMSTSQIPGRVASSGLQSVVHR
Procedure, shortened: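 Each reaction was incubated 22 hours at room temperature and terminated with EDTA. Read-out was microfluidic electrophoretic separation of fluoresceinated substrate and phospho-product.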

CK1ε, sequence (P49674 whole entry): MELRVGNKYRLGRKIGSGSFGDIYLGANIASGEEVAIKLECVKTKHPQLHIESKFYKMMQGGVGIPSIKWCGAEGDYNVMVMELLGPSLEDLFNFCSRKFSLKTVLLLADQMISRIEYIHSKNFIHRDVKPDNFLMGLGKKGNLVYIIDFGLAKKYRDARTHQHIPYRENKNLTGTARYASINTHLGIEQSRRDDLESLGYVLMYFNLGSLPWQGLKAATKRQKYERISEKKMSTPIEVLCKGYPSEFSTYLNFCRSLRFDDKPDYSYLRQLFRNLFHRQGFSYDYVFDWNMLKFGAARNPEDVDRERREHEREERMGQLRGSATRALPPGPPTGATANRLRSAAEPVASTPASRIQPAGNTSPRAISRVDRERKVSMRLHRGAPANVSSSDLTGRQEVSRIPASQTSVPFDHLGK

Row | Molecule | IC50 ([1]; read-out: CK1ε IC50 range) | IC50 ([2]; read-out: CK1δ IC50 range) | IC50 ([1]; read-out: CK1ε) | IC50 ([2]; read-out: CK1δ)
1 | NC(=O)c1c(-c2cccc(F)c2)nn2c1CN(C(=O)NCC(F)(F)F)CC2 [Compound 15, 2-(3-Fluorophenyl)-N^5-(2,2,2-trifluoroethyl)-6,7-dihydropyrazolo[1,5-a]pyrazine-3,5(4H)-dicarboxamide] | 100 to 2000 nM | 10 to 100 nM |  | 
2 | CNC(=O)C(C)(C)NC(=O)N1CCn2nc(-c3ccc(F)c(Cl)c3)c(C(N)=O)c2C1 [Compound 214, 2-(3-Chloro-4-fluorophenyl)-N^5-(2-methyl-1-(methylamino)-1-oxopropan-2-yl)-6,7-dihydropyrazolo[1,5-a] pyrazine-3,5(4H)-dicarboxamide] | 10 to 100 nM | 10 to 100 nM |  | 
3 | COC12CCC(NC(=O)N3CCn4nc(-c5cccc(Cl)c5)c(C(N)=O)c4C3)(CC1)C2 [Compound A82, 2-(3-Chlorophenyl)-N^5-(4-methoxybicyclo[2.2.1]heptan-1-yl)-6,7-dihydropyrazolo[1,5-a]pyrazine-3,5(4H)-dicarboxamide] | 0.01 to 10 nM | 0.01 to 10 nM |  | 
4 | CC(C)(C)NC(=O)N1Cc2c(C(N)=O)c(-c3ccc(F)c(Cl)c3)nn2C(CN2CCOCC2)C1 (stereo not shown) [Compound A16, N^5-(tert-Butyl)-2-(3-chloro-4-fluorophenyl)-7-(morpholinomethyl)-6,7-dihydropyrazolo[1,5-a]pyrazine-3,5(4H)-dicarboxamide] | 0.01 to 10 nM | 10 to 100 nM |  | 
5 | NC(=O)c1c(-c2ccc(F)c(Cl)c2)nn2c1CN(C(=O)NC13CCCC(CCC1)C3)CC2 [Compound A64, N^5-((1r,5r)-Bicyclo[3.3.1]nonan-1-yl)-2-(3-chloro-4-fluorophenyl)-6,7-dihydropyrazolo[1,5-a]pyrazine-3,5(4H)-dicarboxamide] | 0.01 to 10 nM | 0.01 to 10 nM |  | 
6 | COCCC1CN(C(=O)NC(C)(C)C)Cc2c(C(N)=O)c(-c3ccc(F)c(Cl)c3)nn21 (single isomer, unassigned) [Compound A101, N^5-(tert-Butyl)-2-(3-chloro-4-fluorophenyl)-7-(2-methoxyethyl)-6,7-dihydropyrazolo[1,5-a]pyrazine-3,5(4H)-dicarboxamide] | 0.01 to 10 nM | 0.01 to 10 nM |  | 
7 | NC(=O)c1c(-c2ccc(F)c(Cl)c2)nn2c1CN(C(=O)NC1CC(F)(F)C1)[C@@H]1COC[C@@H]12 [Compound 353, (5aS,8aR)-2-(3-Chloro-4-fluorophenyl)-N^5-(3,3-difluorocyclobutyl)-5a,6,8,8a-tetrahydrofuro[3,4-e]pyrazolo [1,5-c]pyrazine-3,5(4H)-dicarboxamide] | 0.01 to 10 nM | 0.01 to 10 nM |  | 
8 | NC(=O)c1c(-c2cccc(Cl)c2)nn2c1CN(C(=O)NC1CC3(C1)CC3(F)F)CC2 (single isomer, unassigned) [Compound 322, 2-(3-Chlorophenyl)-N^5-(1,1-difluorospiro[2.3]hexan-5-yl)-6,7-dihydropyrazolo[1,5-a]pyrazine-3,5(4H)-dicarboxamide] | 0.01 to 10 nM | 0.01 to 10 nM |  | 
9 | CC(C)(C)NC(=O)N1CCn2nc(-c3cccc(CNS(C)(=O)=O)c3)c(C(N)=O)c2C1 [Compound 135, N^5-(tert-Butyl)-2-(3-(methylsulfonamidomethyl)phenyl)-6,7-dihydropyrazolo [1,5-a]pyrazine-3,5(4H)-dicarboxamide] | 100 to 2000 nM | 100 to 2000 nM |  | 
10 | NC(=O)c1c(-c2cc(F)cc(Cl)c2)nn2c1CN(C(=O)NC1CC(F)(F)C1)CC2 [Compound 295, 2-(3-Chloro-5-fluorophenyl)-N^5-(3,3-difluorocyclobutyl)-6,7-dihydropyrazolo[1,5-a] pyrazine-3,5(4H)-dicarboxamide] | 0.01 to 10 nM | 0.01 to 10 nM |  | 
11 | NC(=O)c1c(-c2cccc(F)c2)nn2c1CN(C(=O)Nc1cccnn1)CC2 [Compound 91, 2-(3-Fluorophenyl)-N^5-(pyridazin-3-yl)-6,7-dihydropyrazolo[1,5-a]pyrazine-3,5(4H)-dicarboxamide] | 100 to 2000 nM | 10 to 100 nM |  | 
12 | NC(=O)c1c(-c2cccc(Cl)c2)nn2c1CN(C(=O)NC1CC3(C1)CC(F)(F)C3)CC2 [Compound 182, 2-(3-Chlorophenyl)-N^5-(6,6-difluorospiro[3.3]heptan-2-yl)-6,7-dihydropyrazolo[1,5-a] pyrazine-3,5(4H)-dicarboxamide] | 0.01 to 10 nM | 0.01 to 10 nM |  | 
13 | CC1CC(NC(=O)N2CCn3nc(-c4cccc(Cl)c4)c(C(N)=O)c3C2)C1 (single isomer, unassigned) [Compound 251, 2-(3-Chlorophenyl)-N^5-(3-methylcyclobutyl)-6,7-dihydropyrazolo[1,5-a]pyrazine-3,5(4H)-dicarboxamide] | 0.01 to 10 nM | 0.01 to 10 nM |  | 
14 | NC(=O)c1c(-c2ccc(F)c(Cl)c2)nn2c1CN(C(=O)NC1CC(F)(F)C1)CC2C(F)(F)F (single isomer, unassigned) [Compound A125, 2-(3-Chloro-4-fluorophenyl)-N^5-(3,3-difluorocyclobutyl)-7-(trifluoromethyl)-6,7-dihydropyrazolo[1,5-a]pyrazine-3,5(4H)-dicarboxamide] | 10 to 100 nM | 10 to 100 nM |  | 
15 | CC(C)(C)NC(=O)N1CCn2nc(-c3ccc4cc[nH]c4c3)c(C(N)=O)c2C1 [Compound 143] | 10 to 100 nM | 0.01 to 10 nM | 33.3 nM | 4.2 nM
16 | CC(=O)N1CC2(C1)CN(C(=O)NC(C)(C)C)Cc1c(C(N)=O)c(-c3ccc(F)c(Cl)c3)nn12 [Compound A135, 1-Acetyl-N^5′-(tert-butyl)-2′-(3-chloro-4-fluorophenyl)-4′H-spiro[azetidine-3,7′-pyrazolo[1,5-a]pyrazine]-3′,5′(6′H)-dicarboxamide] | 0.01 to 10 nM | 0.01 to 10 nM |  | 
17 | N^5-(tert-Butyl)-2-(3-chloro-4-fluorophenyl)-7-(2-cyanoethyl)-6,7-dihydropyrazolo[1,5-a]pyrazine-3,5(4H)-dicarboxamide [Compound A104] | 0.01 to 10 nM | 0.01 to 10 nM |  | 
18 | NC(=O)c1c(-c2cccc(Cl)c2)nn2c1CN(C(=O)NC13CCC(C(F)F)(CC1)CC3)CC2 [Compound A77, 2-(3-Chlorophenyl)-N^5-(4-(difluoromethyl)bicyclo[2.2.2]octan-1-yl)-6,7-dihydropyrazolo[1,5-a]pyrazine-3,5(4H)-dicarboxamide] | 0.01 to 10 nM | 0.01 to 10 nM |  | 
19 | CC(C)(C)NC(=O)N1CCn2nc(-c3ccccc3F)c(C(N)=O)c2C1 [Compound 107, N^5-(tert-Butyl)-2-(2-fluorophenyl)-6,7-dihydropyrazolo[1,5-a] pyrazine-3,5(4H)-dicarboxamide] | 100 to 2000 nM | 10 to 100 nM | 400 nM | 105 nM
20 | N#Cc1ccc(C2(NC(=O)N3CCn4nc(-c5ccc(Cl)c(Cl)c5)c(C(N)=O)c4C3)CC(F)(F)C2)cc1 [Compound 316, N^5-(1-(4-Cyanophenyl)-3,3-difluorocyclobutyl)-2-(3,4-dichlorophenyl)-6,7-dihydropyrazolo[1,5-a]pyrazine-3,5(4H)-dicarboxamide] | 0.01 to 10 nM | 0.01 to 10 nM |  | 
21 | CC1CC(NC(=O)N2CCn3nc(-c4ccc(F)c(Cl)c4)c(C(N)=O)c3C2)C1 (single isomer, unassigned) [Compound 247, 2-(3-Chloro-4-fluorophenyl)-N^5-(3-methylcyclobutyl)-6,7-dihydropyrazolo[1,5-a]pyrazine-3,5(4H)-dicarboxamide] | 0.01 to 10 nM | 0.01 to 10 nM |  | 
22 | NC(=O)c1c(-c2ccc(F)c(Cl)c2)nn2c1CN(C(=O)NC13CCC(CC1)CC3)CC2 [Compound A58, N^5-(Bicyclo[2.2.2]octan-1-yl)-2-(3-chloro-4-fluorophenyl)-6,7-dihydropyrazolo[1,5-a]pyrazine-3,5(4H)-dicarboxamide] | 0.01 to 10 nM | 0.01 to 10 nM |  | 
23 | CC(C)(O)[C@H]1CN(C(=O)NC2CC(F)(F)C2)Cc2c(C(N)=O)c(-c3ccc(F)c(Cl)c3)nn21 [Compound A20, (R)-2-(3-Chloro-4-fluorophenyl)-N^5-(3,3 difluorocyclobutyl)-7-(2-hydroxypropan-2-yl)-6,7-dihydropyrazolo[1,5-a] pyrazine-3,5(4H)-dicarboxamide] | 0.01 to 10 nM | 0.01 to 10 nM |  | 
24 | CC(C)NC(=O)N1CCn2nc(-c3ccc(F)cc3)c(C(N)=O)c2C1 [Compound 2, 2-(4-Fluorophenyl)-N^5-isopropyl-6,7-dihydropyrazolo[1,5-a]pyrazine-3,5(4H)-dicarboxamide] | 10 to 100 nM | 10 to 100 nM |  | 
25 | NC(=O)c1c(-c2cccc(Cl)c2)nn2c1CN(C(=O)NC1(C(F)F)CCC1)CC2 [Compound 236, 2-(3-Chlorophenyl)-N^5-(1-(difluoromethyl)cyclobutyl)-6,7-dihydropyrazolo[1,5-a] pyrazine-3,5(4H)-dicarboxamide] | 0.01 to 10 nM | 0.01 to 10 nM |  | 
26 | NC(=O)c1c(-c2cccc(Cl)c2)nn2c1CN(C(=O)NCC1CC(F)(F)C1)CC2 [Compound 179, 2-(3-Chlorophenyl)-N^5-((3,3-difluorocyclobutyl)methyl)-6,7-dihydropyrazolo[1,5-a]pyrazine-3,5(4H)-dicarboxamide] | 0.01 to 10 nM | 0.01 to 10 nM |  | 
27 | CC1CC(NC(=O)N2CCn3nc(-c4ccc(F)c(Cl)c4)c(C(N)=O)c3C2)C1 (single isomer, unassigned) [Compound 246, 2-(3-Chloro-4-fluorophenyl)-N^5-(3-methylcyclobutyl)-6,7-dihydropyrazolo[1,5-a]pyrazine-3,5(4H)-dicarboxamide] | 0.01 to 10 nM | 0.01 to 10 nM |  | 

Source: US9273058B2 (BRISTOL-MYERS SQUIBB COMPANY, priority 2013, dated 2016)
